Patent US20250230193A1, “CYCLIC COMPOUND HAVING SELECTIVE KRAS INHIBITORY EFFECT ON HRAS AND NRAS” (CHUGAI SEIYAKU KABUSHIKI KAISHA, priority 2022, published 2025)

What was measured:
[1] = molecular target: GDP-bound NRAS wild-type protein (Homo sapiens, UniProt P01111); experiment: Binding to NRAS by surface plasmon resonance (SPR), Single Cycle Kinetics; conditions: KD ratio, GDP-bound NRAS wild-type vs GDP-bound KRAS wild-type, SPR
[2] = molecular target: GDP-bound HRAS wild-type protein (Homo sapiens, UniProt P01112); experiment: Binding to HRAS by surface plasmon resonance (SPR), Single Cycle Kinetics; conditions: KD ratio, GDP-bound HRAS wild-type vs GDP-bound KRAS wild-type, SPR
GDP-bound HRAS wild-type protein, sequence (P01112 whole entry): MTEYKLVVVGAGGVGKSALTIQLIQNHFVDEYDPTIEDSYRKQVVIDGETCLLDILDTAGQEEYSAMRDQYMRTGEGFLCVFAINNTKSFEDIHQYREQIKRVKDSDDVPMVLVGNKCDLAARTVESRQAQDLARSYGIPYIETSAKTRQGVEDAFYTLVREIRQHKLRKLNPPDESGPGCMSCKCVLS

GDP-bound NRAS wild-type protein, sequence (P01111 whole entry): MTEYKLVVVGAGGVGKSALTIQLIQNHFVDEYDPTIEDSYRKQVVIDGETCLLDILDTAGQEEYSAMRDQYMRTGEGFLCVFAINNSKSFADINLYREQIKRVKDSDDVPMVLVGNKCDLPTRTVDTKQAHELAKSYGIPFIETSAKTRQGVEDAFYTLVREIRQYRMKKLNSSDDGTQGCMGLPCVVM

| SMILES | NRAS/KRAS (ratio of KD value with respect to NRAS to KD value with respect to KRAS) [1] | HRAS/KRAS (ratio of KD value with respect to HRAS to KD value with respect to KRAS) [2] |
| --- | --- | --- |
| CC[C@H](C)[C@@H]1NC(=O)[C@H](COC)N(C)C(=O)C[C@@H](C(=O)N2CCOCC2)N(C)C(=O)[C@H](C2CCCC2)N(C)C(=O)C2(CCCC2)NC(=O)[C@@H]2CC(F)(F)CN2C(=O)[C@H](CCc2cc(F)c(C(F)(F)F)c(F)c2)NC(=O)CN(C)C(=O)[C@H](Cc2ccc(C(F)(F)F)cc2)N2CCCCC[C@@H](C2=O)N(C)C(=O)CN(C)C1=O [PP0846] | B (a compound having 3 or more and less than 10 is denoted as B) | B (a compound having 3 or more and less than 10 is denoted as B) |
| CC[C@H](C)[C@@H]1NC(=O)[C@H](COC)N(C)C(=O)C[C@@H](C(=O)N2CCOCC2)N(C)C(=O)[C@H](C2CCCC2)N(C)C(=O)C2(CCCC2)NC(=O)[C@@H]2C[C@H](O)CN2C(=O)[C@H](CCc2cc(F)c(C(F)(F)F)c(F)c2)NC(=O)CN(C)C(=O)[C@H](Cc2ccc(C(F)(F)F)cc2)N2CCCCC[C@@H](C2=O)N(C)C(=O)CN(C)C1=O [PP0847] | B (a compound having 3 or more and less than 10 is denoted as B) | B (a compound having 3 or more and less than 10 is denoted as B) |
| CCO[C@@H]1C[C@H]2C(=O)NC3(CCC3)C(=O)N(C)[C@@H](C3CCCC3)C(=O)N(C)[C@H](C(=O)N3CCOCC3)CC(=O)N(C)[C@@H](COC)C(=O)N[C@@H]([C@@H](C)CC)C(=O)N(C)CC(=O)N(C)[C@H]3CCCCCN(C3=O)[C@@H](Cc3ccc(C(F)(F)F)cc3)C(=O)N(C)CC(=O)N[C@@H](CCc3ccc(C(F)(F)F)c(F)c3)C(=O)N2C1 [PP0848] | B (a compound having 3 or more and less than 10 is denoted as B) | B (a compound having 3 or more and less than 10 is denoted as B) |
| CCO[C@@H]1C[C@H]2C(=O)NC3(CCC3)C(=O)N(C)[C@@H](C3CCCC3)C(=O)N(C)[C@H](C(=O)N3CCOCC3)CC(=O)N(C)[C@@H](COC)C(=O)N[C@@H]([C@@H](C)CC)C(=O)N(C)CC(=O)N(C)[C@H]3CCCCCN(C3=O)[C@@H](Cc3ccc(C(F)(F)F)cc3)C(=O)N(C)CC(=O)N[C@@H](CCc3ccc(C(F)(F)F)c(Cl)c3)C(=O)N2C1 [PP0849] | B (a compound having 3 or more and less than 10 is denoted as B) | B (a compound having 3 or more and less than 10 is denoted as B) |
| CCO[C@@H]1C[C@H]2C(=O)NC3(CCC3)C(=O)N(C)[C@@H](C3CCCC3)C(=O)N(C)[C@H](C(=O)N3CCOCC3)CC(=O)N(C)[C@@H](COC)C(=O)N[C@@H]([C@@H](C)CC)C(=O)N(C)CC(=O)N(C)[C@H]3CCCCCN(C3=O)[C@@H](Cc3ccc(C(F)(F)F)cc3)C(=O)N(C)CC(=O)N[C@@H](CCc3ccc(C)cc3)C(=O)N2C1 [PP0850] | B (a compound having 3 or more and less than 10 is denoted as B) | B (a compound having 3 or more and less than 10 is denoted as B) |
| CCOC[C@H]1C(=O)N[C@@H]([C@@H](C)CC)C(=O)N(C)CC(=O)N(C)[C@H]2CCCCCN(C2=O)[C@@H](Cc2ccc(C(F)(F)F)cc2)C(=O)N(C)CC(=O)N[C@@H](CCc2cc(F)c(C(F)(F)F)c(F)c2)C(=O)N2C[C@H](OCC)C[C@H]2C(=O)NC2(CCC2)C(=O)N(C)[C@@H](C2CCCC2)C(=O)N(C)[C@H](C(=O)N2CCOCC2)CC(=O)N1C [PP0851] | B (a compound having 3 or more and less than 10 is denoted as B) | B (a compound having 3 or more and less than 10 is denoted as B) |
| CCO[C@@H]1C[C@H]2C(=O)NC3(CCC3)C(=O)N(C)[C@@H](C3CCCC3)C(=O)N(C)[C@H](C(=O)N3CCOCC3)CC(=O)N(C)[C@@H](COC3CC3)C(=O)N[C@@H]([C@@H](C)CC)C(=O)N(C)CC(=O)N(C)[C@H]3CCCCCN(C3=O)[C@@H](Cc3ccc(C(F)(F)F)cc3)C(=O)N(C)CC(=O)N[C@@H](CCc3cc(F)c(C(F)(F)F)c(F)c3)C(=O)N2C1 [PP0852] | B (a compound having 3 or more and less than 10 is denoted as B) | B (a compound having 3 or more and less than 10 is denoted as B) |
| CCO[C@@H]1C[C@H]2C(=O)NC3(CCC3)C(=O)N(C)[C@@H](C3CCCC3)C(=O)N(C)[C@H](C(=O)N3CCOCC3)CC(=O)N(C)[C@@H](COCC(F)(F)F)C(=O)N[C@@H]([C@@H](C)CC)C(=O)N(C)CC(=O)N(C)[C@H]3CCCCCN(C3=O)[C@@H](Cc3ccc(C(F)(F)F)cc3)C(=O)N(C)CC(=O)N[C@@H](CCc3cc(F)c(C(F)(F)F)c(F)c3)C(=O)N2C1 [PP0853] | B (a compound having 3 or more and less than 10 is denoted as B) | B (a compound having 3 or more and less than 10 is denoted as B) |
| CCO[C@@H]1C[C@H]2C(=O)NC3(CCC3)C(=O)N(C)[C@@H](C3CCCC3)C(=O)N(C)[C@H](C(=O)N3CCOCC3)CC(=O)N(C)[C@@H](CC(F)F)C(=O)N[C@@H]([C@@H](C)CC)C(=O)N(C)CC(=O)N(C)[C@H]3CCCCCN(C3=O)[C@@H](Cc3ccc(C(F)(F)F)cc3)C(=O)N(C)CC(=O)N[C@@H](CCc3cc(F)c(C(F)(F)F)c(F)c3)C(=O)N2C1 [PP0854] | B (a compound having 3 or more and less than 10 is denoted as B) | B (a compound having 3 or more and less than 10 is denoted as B) |
| CCO[C@@H]1C[C@H]2C(=O)NC3(CCC3)C(=O)N(C)[C@@H](C3CCCC3)C(=O)N(C)[C@H](C(=O)N3CCOCC3)CC(=O)N(C)[C@@H](Cc3cscn3)C(=O)N[C@@H]([C@@H](C)CC)C(=O)N(C)CC(=O)N(C)[C@H]3CCCCCN(C3=O)[C@@H](Cc3ccc(C(F)(F)F)cc3)C(=O)N(C)CC(=O)N[C@@H](CCc3cc(F)c(C(F)(F)F)c(F)c3)C(=O)N2C1 [PP0855] | B (a compound having 3 or more and less than 10 is denoted as B) | B (a compound having 3 or more and less than 10 is denoted as B) |
| CCO[C@@H]1C[C@H]2C(=O)NC3(CCC3)C(=O)N(C)[C@@H](C3CCCC3)C(=O)N(C)[C@H](C(=O)N3CCOCC3)CC(=O)N(C)[C@@H](Cc3cccc(F)c3)C(=O)N[C@@H]([C@@H](C)CC)C(=O)N(C)CC(=O)N(C)[C@H]3CCCCCN(C3=O)[C@@H](Cc3ccc(C(F)(F)F)cc3)C(=O)N(C)CC(=O)N[C@@H](CCc3cc(F)c(C(F)(F)F)c(F)c3)C(=O)N2C1 [PP0856] | B (a compound having 3 or more and less than 10 is denoted as B) | B (a compound having 3 or more and less than 10 is denoted as B) |
| CCO[C@@H]1C[C@H]2C(=O)NC3(CCC3)C(=O)N(C)[C@@H](C3CCCC3)C(=O)N(C)[C@H](C(=O)N3CCOCC3)CC(=O)N(C)[C@@H](Cc3cccc(Cl)c3)C(=O)N[C@@H]([C@@H](C)CC)C(=O)N(C)CC(=O)N(C)[C@H]3CCCCCN(C3=O)[C@@H](Cc3ccc(C(F)(F)F)cc3)C(=O)N(C)CC(=O)N[C@@H](CCc3cc(F)c(C(F)(F)F)c(F)c3)C(=O)N2C1 [PP0857] | B (a compound having 3 or more and less than 10 is denoted as B) | B (a compound having 3 or more and less than 10 is denoted as B) |
| CCO[C@@H]1C[C@H]2C(=O)NC3(CCC3)C(=O)N(C)[C@@H](C3CCCC3)C(=O)N(C)[C@H](C(=O)N3CCOCC3)CC(=O)N(C)[C@@H](COC)C(=O)N[C@@H]([C@@H](C)CC)C(=O)NCC(=O)N(C)[C@H]3CCCCCN(C3=O)[C@@H](Cc3ccc(C(F)(F)F)cc3)C(=O)N(C)CC(=O)N[C@@H](CCc3cc(F)c(C(F)(F)F)c(F)c3)C(=O)N2C1 [PP0858] | B (a compound having 3 or more and less than 10 is denoted as B) | B (a compound having 3 or more and less than 10 is denoted as B) |
| CCO[C@@H]1C[C@H]2C(=O)NC3(CCC3)C(=O)N(C)[C@@H](C3CCCC3)C(=O)N(C)[C@H](C(=O)N(C)C)CC(=O)N(C)[C@@H](COC)C(=O)N[C@@H]([C@@H](C)CC)C(=O)NCC(=O)N(C)[C@H]3CCCCCN(C3=O)[C@@H](Cc3ccc(C(F)(F)F)cc3)C(=O)N(C)CC(=O)N[C@@H](CCc3cc(F)c(C(F)(F)F)c(F)c3)C(=O)N2C1 [PP0859] | B (a compound having 3 or more and less than 10 is denoted as B) | B (a compound having 3 or more and less than 10 is denoted as B) |
| CC[C@H](C)[C@@H]1NC(=O)[C@H](COC)N(C)C(=O)C[C@@H](C(=O)N2CCOCC2)N(C)C(=O)[C@H](C2CCCC2)N(C)C(=O)C2(CCC2)NC(=O)[C@@H]2CCCN2C(=O)[C@H](CCc2cc(F)c(C(F)(F)F)c(F)c2)NC(=O)CN(C)C(=O)[C@H](Cc2ccc(C(F)(F)F)cc2)N2CCCCC[C@@H](C2=O)N(C)C(=O)CNC1=O [PP0860] | B (a compound having 3 or more and less than 10 is denoted as B) | B (a compound having 3 or more and less than 10 is denoted as B) |
| CC[C@H](C)[C@@H]1NC(=O)[C@H](COC)N(C)C(=O)C[C@@H](C(=O)N2CCOCC2)N(C)C(=O)[C@H](C2CCCC2)N(C)C(=O)C2(CCC2)NC(=O)[C@@H]2CC(F)(F)CN2C(=O)[C@H](CCc2cc(F)c(C(F)(F)F)c(F)c2)NC(=O)CN(C)C(=O)[C@H](Cc2ccc(C(F)(F)F)cc2)N2CCCCC[C@@H](C2=O)N(C)C(=O)CNC1=O [PP0861] | B (a compound having 3 or more and less than 10 is denoted as B) | B (a compound having 3 or more and less than 10 is denoted as B) |
